Data: ChEMBL document CHEMBL4609983, “Pan-specific and partially selective dye-labeled peptidic inhibitors of the polycomb paralog proteins” (Bioorg Med Chem, 2020)
Blank lines part the entries; values can stand above or below the compound they belong to. Non-standard residues stand in square brackets, D forms with d. Residues, ends and D or L forms follow the SMILES beside them. *: point of attachment. X1 = O=C(O)c1cc(NC(=S)*)ccc1-c1c2ccc(=O)cc-2oc2cc(O)ccc12; Lys(Me3) = C[N+](C)(C)CCCC[C@H](N)C(=O)O; Benzoyl(4-Br) = O=C(c1ccc(Br)cc1)*; Gly(cPent) = N[C@H](C(=O)O)C1CCCC1; Abu = CC[C@H](N)C(=O)O; βAla = NCCC(=O)O

How the values were obtained:
Homo sapiens [1] = organism: Homo sapiens; assay: Selectivity ratio of IC50 for CBX7 (unknown origin) to IC50 for CBX8 (unknown origin)
Homo sapiens [2] = organism: Homo sapiens; assay: Selectivity ratio of IC50 for CBX4 (unknown origin) to IC50 for CBX7 (unknown origin)
[3] = target: T1, Chromobox protein homolog 8 (Homo sapiens, UniProt Q9HC52); assay: Inhibition of CBX8 (unknown origin) assessed as […] by competitive FP assay
T1 sequence (Q9HC52 whole entry): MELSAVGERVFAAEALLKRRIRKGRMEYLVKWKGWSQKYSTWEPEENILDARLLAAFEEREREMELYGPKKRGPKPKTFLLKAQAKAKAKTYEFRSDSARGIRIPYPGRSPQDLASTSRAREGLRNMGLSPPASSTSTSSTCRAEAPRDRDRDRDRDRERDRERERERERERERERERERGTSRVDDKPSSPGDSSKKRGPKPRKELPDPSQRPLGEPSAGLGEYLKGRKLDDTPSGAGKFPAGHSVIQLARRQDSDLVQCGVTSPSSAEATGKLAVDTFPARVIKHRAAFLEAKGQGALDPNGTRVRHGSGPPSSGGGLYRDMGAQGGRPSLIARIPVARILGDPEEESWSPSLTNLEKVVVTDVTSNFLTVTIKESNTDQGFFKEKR

[4] = target: T2, Chromobox protein homolog 6 (Homo sapiens, UniProt O95503); assay: Inhibition of CBX6 (unknown origin) assessed as […] by competitive FP assay
T2 sequence (O95503 whole entry): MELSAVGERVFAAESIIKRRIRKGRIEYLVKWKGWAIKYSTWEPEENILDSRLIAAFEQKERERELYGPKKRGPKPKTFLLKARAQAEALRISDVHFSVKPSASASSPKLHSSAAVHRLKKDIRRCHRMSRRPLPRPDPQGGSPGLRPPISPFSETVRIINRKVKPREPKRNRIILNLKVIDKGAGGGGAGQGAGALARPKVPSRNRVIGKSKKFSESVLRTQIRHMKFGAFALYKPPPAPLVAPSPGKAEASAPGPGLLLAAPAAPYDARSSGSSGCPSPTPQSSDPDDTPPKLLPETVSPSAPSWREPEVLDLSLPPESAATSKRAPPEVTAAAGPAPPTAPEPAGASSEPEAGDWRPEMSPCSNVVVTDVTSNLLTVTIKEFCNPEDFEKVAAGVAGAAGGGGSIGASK

[5] = target: T3, Chromobox protein homolog 7 (Homo sapiens, UniProt O95931); assay: Inhibition of CBX7 (unknown origin) assessed as […] by competitive FP assay
T3 sequence (O95931 whole entry): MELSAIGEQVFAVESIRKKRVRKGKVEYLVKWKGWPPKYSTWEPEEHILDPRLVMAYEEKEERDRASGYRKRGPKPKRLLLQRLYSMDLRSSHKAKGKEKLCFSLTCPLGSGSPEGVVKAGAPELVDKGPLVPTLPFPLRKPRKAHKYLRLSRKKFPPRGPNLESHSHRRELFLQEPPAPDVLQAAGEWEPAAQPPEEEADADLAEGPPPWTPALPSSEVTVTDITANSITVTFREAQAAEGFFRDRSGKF

[6] = Drug uptake in cytoplasm of human PC3 cells by live cell imaging analysis; format: ADME, cell-based; conditions: pc-3
[7] = Drug uptake in cytoplasm of human TOV21G cells by live cell imaging analysis; format: ADME, cell-based
TOV21G [8] = assay: Effect on cell cycle in human TOV21G cells by measuring cells distribution at G0 phase; format: cell-based
TOV21G [9] = assay: Effect on cell cycle in human TOV21G cells by measuring cells distribution at G2/M phase; format: cell-based
[10] = target: T2, Chromobox protein homolog 6; assay: Binding affinity to CBX6 (unknown origin) assessed as dissociation constant by fluorescence polarization analysis
[11] = target: T4, E3 SUMO-protein ligase CBX4 (Homo sapiens, UniProt O00257); assay: Binding affinity to CBX4 (unknown origin) assessed as dissociation constant by fluorescence polarization analysis
T4 sequence (O00257 whole entry): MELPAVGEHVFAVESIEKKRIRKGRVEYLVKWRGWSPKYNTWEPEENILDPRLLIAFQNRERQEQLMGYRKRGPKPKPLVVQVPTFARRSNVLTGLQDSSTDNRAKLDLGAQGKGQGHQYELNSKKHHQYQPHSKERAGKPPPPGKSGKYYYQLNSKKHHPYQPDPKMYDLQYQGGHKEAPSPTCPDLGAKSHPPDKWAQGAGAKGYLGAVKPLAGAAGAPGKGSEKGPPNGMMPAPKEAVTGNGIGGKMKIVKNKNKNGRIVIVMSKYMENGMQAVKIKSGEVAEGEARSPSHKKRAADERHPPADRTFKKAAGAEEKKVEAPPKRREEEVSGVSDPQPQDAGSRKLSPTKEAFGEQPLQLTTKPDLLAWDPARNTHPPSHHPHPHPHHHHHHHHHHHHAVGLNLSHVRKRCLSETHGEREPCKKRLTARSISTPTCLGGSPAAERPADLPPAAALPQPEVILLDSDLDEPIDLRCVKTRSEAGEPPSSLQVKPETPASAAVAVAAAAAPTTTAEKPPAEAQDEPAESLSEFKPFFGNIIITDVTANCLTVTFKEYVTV

[12] = Drug uptake in nucleus of human TOV21G cells by live cell imaging analysis; format: ADME, cell-based
[13] = target: T3, Chromobox protein homolog 7; assay: Binding affinity to CBX7 (unknown origin) assessed as dissociation constant by fluorescence polarization analysis
[14] = target: T5, Chromobox protein homolog 2 (Homo sapiens, UniProt Q14781); assay: Binding affinity to CBX2 (unknown origin) assessed as dissociation constant by fluorescence polarization analysis
T5 sequence (Q14781 whole entry): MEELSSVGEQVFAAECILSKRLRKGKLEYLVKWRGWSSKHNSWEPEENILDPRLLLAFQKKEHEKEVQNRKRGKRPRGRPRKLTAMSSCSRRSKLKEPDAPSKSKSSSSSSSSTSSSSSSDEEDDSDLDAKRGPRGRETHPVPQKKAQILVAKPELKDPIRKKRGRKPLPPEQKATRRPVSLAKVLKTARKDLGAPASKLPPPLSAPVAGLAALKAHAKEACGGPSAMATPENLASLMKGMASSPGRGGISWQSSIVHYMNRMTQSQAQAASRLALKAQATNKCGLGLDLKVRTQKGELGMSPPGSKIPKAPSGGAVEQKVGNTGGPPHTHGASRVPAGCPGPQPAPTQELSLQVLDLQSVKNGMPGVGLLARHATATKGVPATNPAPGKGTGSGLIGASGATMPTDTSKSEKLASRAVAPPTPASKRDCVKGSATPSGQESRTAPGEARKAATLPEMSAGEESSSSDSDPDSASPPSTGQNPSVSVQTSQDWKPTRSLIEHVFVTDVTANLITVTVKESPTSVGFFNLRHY

[15] = target: Chromobox protein homolog 1 (Homo sapiens, UniProt P83916); assay: Binding affinity to CBX1 (unknown origin) assessed as dissociation constant by fluorescence polarization analysis
TOV21G [16] = assay: Effect on cell cycle in human TOV21G cells by measuring cells distribution at S phase; format: cell-based
[17] = target: T1, Chromobox protein homolog 8; assay: Binding affinity to CBX8 (unknown origin) assessed as dissociation constant by fluorescence polarization analysis
[18] = Drug uptake in human TOV21G cells by flow cytometric analysis; format: ADME, cell-based
TOV21G [19] = assay: Effect on cell cycle in human TOV21G cells by measuring cells distribution at G1 phase; format: cell-based
[20] = Drug uptake in nucleus of human PC3 cells by live cell imaging analysis; format: ADME, cell-based; conditions: pc-3
[21] = Drug uptake in human PC3 cells assessed as endosomal entrapment by measuring characteristic punctate dots in the cytoplasm at 10 uM by cell imaging analysis; format: ADME, cell-based; conditions: pc-3, 10 µM
[22] = Drug uptake in human TOV21G cells assessed as endosomal entrapment by measuring characteristic punctate dots in the cytoplasm at 10 uM by cell imaging analysis; format: ADME, cell-based

Chain of Chromobox protein homolog 1 (P83916 whole entry): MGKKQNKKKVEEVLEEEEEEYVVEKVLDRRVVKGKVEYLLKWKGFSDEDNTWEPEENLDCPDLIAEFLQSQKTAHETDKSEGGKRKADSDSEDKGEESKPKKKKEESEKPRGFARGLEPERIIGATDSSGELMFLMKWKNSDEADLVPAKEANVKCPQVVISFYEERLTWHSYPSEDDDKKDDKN

Ratio IC50 (Homo sapiens [1]): 2 | Ratio IC50 (Homo sapiens [2]): 10 | IC50 [3]: 3800 nM | IC50 [4]: 2800 nM | IC50 [5]: 8300 nM
SMILES: CC[C@H](NC(=O)[C@H](Cc1ccccc1)NC(=O)c1ccc(Br)cc1)C(=O)N[C@H](C(=O)N[C@@H](CCCC[N+](C)(C)C)C(=O)N[C@@H](CO)C(=O)N[C@@H](CCC(=O)O)C(N)=O)C1CCCC1 ({Benzoyl(4-Br)}-F[Abu][Gly(cPent)][Lys(Me3)]SE-NH2)

Drug uptake [6]: Not Active | Drug uptake [7]: Not Active | Kd [10]: 1100 nM | Kd [11]: 1700 nM | Drug uptake [12]: Not Active | Kd [13]: 1600 nM | Kd [14]: 3100 nM | Kd [15]: 47000 nM | Kd [17]: 1700 nM | Drug uptake [18]: Active | Drug uptake [20]: Not Active | Drug uptake [21]: Active | Drug uptake [22]: Active
SMILES: CC(C)C[C@H](NC(=O)[C@H](C)NC(=O)[C@H](Cc1ccccc1)NC(=O)[C@H](Cc1ccccc1)NC(=O)CCNC(=S)Nc1ccc(-c2c3ccc(=O)cc-3oc3cc(O)ccc23)c(C(=O)O)c1)C(=O)N[C@@H](CCCC[N+](C)(C)C)C(=O)N[C@@H](CO)C(N)=O ({X1-βAla}-FFAL[Lys(Me3)]S-NH2)
Activity (TOV21G [8]): Non-Toxic | Activity (TOV21G [9]): Non-Toxic | Activity (TOV21G [16]): Non-Toxic | Activity (TOV21G [19]): Non-Toxic
